The target of test [1] is Metabotropic glutamate receptor 8 (Homo sapiens, UniProt O00222).
Description: Positive allosteric modulation of human mGlu8 receptor expressed in HEK293 cells by fluorescent Ca2+ assay
Test [2] addresses Metabotropic glutamate receptor 2 (Homo sapiens, UniProt Q14416).
Description: Positive allosteric modulation of human mGlu2 receptor expressed in HEK293 cells by fluorescent Ca2+ assay
Test [3] addresses Metabotropic glutamate receptor 6 (Rattus norvegicus, UniProt P35349).
Description: Positive allosteric modulation of rat mGlu6 receptor expressed in CHO cells by [35S]-GTPgammaS binding assay
The target of test [4] is Metabotropic glutamate receptor 1 (Homo sapiens, UniProt Q13255).
Description: Positive allosteric modulation of human mGlu1 receptor expressed in HEK293 cells by fluorescent Ca2+ assay
The target in test [5] is Metabotropic glutamate receptor 7 (Homo sapiens, UniProt Q14831).
Description: Positive allosteric modulation of human mGlu7 receptor expressed in HEK293 cells by fluorescent Ca2+ assay
Test [6] concerns the target Metabotropic glutamate receptor 3 (Homo sapiens, UniProt Q14832).
Description: Positive allosteric modulation of human mGlu3 receptor expressed in HEK293 cells by fluorescent Ca2+ assay
In test [7] the target is Metabotropic glutamate receptor 5 (Homo sapiens, UniProt P41594).
Description: Positive allosteric modulation of human mGluR5a transfected in HEK293 cells by calcium mobilization assay
In test [8] the target is Metabotropic glutamate receptor 4 (Homo sapiens, UniProt Q14833).
Description: Positive allosteric modulation of human mGlu4 receptor expressed in HEK293 cells by fluorescent Ca2+ assay

Structures are written as SMILES. A value given as a limit tells only on which side of the number the result lay.

Sequence of Metabotropic glutamate receptor 2 (Q14416 whole entry): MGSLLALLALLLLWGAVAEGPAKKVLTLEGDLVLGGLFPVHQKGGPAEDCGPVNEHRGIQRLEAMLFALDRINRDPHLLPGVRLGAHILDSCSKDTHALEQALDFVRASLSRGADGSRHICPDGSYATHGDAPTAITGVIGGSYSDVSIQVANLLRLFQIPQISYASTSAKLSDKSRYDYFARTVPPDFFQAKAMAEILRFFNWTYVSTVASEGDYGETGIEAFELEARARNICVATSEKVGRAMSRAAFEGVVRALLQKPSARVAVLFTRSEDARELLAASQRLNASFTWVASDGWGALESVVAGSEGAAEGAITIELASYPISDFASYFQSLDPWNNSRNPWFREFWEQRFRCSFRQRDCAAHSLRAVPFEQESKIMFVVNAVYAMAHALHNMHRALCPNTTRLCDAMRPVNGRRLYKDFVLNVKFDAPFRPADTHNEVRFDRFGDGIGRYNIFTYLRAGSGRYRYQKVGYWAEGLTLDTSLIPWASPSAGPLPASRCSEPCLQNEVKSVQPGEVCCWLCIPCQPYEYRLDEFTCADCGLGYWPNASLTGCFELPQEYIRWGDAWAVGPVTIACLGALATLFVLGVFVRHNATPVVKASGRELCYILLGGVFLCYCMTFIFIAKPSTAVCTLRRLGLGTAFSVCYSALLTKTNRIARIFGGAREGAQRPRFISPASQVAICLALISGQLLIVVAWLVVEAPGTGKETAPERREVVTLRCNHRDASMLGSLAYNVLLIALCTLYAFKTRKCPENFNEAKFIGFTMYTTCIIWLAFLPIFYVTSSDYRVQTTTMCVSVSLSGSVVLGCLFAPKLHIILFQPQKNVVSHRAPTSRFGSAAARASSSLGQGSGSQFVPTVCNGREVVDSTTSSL
Sequence of Metabotropic glutamate receptor 6 (P35349 whole entry): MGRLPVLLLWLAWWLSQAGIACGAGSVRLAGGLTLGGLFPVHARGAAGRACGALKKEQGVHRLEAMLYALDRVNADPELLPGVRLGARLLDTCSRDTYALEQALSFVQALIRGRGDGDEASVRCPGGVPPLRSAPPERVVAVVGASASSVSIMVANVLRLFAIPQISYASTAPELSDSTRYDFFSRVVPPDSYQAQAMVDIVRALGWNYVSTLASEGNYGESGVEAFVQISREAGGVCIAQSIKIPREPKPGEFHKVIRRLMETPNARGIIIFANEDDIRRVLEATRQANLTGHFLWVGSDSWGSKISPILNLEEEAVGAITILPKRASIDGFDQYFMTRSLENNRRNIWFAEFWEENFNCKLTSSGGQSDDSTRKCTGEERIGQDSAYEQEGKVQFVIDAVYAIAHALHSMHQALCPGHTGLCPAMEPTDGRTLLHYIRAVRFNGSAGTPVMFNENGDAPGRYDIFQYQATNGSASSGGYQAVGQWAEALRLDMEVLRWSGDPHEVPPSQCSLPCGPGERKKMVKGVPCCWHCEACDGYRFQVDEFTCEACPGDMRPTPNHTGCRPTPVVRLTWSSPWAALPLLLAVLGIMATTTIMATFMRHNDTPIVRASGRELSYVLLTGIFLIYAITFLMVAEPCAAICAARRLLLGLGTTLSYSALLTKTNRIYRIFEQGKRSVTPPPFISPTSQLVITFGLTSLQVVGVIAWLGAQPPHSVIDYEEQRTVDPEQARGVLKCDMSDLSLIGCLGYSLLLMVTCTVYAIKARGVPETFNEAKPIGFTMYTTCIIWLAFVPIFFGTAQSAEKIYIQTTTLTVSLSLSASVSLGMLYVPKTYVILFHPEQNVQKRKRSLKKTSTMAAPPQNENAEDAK
Sequence of Metabotropic glutamate receptor 7 (Q14831 whole entry): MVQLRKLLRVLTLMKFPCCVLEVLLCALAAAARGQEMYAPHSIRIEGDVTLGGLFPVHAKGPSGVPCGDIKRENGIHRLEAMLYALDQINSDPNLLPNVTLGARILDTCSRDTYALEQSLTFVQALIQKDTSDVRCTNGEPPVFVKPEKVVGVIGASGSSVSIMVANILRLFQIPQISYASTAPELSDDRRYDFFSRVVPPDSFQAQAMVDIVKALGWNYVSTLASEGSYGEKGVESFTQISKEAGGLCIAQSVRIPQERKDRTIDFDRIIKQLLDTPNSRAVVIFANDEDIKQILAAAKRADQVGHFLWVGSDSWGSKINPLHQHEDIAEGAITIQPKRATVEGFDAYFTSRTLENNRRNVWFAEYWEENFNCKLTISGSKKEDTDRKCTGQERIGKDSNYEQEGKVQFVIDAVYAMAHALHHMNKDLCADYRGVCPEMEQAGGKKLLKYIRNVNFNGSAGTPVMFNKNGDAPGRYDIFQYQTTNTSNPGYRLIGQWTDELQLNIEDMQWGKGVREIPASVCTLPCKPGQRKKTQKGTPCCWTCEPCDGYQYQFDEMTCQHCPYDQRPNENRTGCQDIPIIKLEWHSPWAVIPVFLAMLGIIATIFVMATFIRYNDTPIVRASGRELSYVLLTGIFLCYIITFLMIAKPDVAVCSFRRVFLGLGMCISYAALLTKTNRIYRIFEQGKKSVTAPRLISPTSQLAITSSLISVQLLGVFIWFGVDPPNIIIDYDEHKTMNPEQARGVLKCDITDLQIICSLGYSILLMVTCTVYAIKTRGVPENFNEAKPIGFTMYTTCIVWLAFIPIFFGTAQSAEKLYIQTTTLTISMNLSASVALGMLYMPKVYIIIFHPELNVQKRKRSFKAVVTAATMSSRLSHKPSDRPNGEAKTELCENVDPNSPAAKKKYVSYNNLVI
Sequence of Metabotropic glutamate receptor 8 (O00222 whole entry): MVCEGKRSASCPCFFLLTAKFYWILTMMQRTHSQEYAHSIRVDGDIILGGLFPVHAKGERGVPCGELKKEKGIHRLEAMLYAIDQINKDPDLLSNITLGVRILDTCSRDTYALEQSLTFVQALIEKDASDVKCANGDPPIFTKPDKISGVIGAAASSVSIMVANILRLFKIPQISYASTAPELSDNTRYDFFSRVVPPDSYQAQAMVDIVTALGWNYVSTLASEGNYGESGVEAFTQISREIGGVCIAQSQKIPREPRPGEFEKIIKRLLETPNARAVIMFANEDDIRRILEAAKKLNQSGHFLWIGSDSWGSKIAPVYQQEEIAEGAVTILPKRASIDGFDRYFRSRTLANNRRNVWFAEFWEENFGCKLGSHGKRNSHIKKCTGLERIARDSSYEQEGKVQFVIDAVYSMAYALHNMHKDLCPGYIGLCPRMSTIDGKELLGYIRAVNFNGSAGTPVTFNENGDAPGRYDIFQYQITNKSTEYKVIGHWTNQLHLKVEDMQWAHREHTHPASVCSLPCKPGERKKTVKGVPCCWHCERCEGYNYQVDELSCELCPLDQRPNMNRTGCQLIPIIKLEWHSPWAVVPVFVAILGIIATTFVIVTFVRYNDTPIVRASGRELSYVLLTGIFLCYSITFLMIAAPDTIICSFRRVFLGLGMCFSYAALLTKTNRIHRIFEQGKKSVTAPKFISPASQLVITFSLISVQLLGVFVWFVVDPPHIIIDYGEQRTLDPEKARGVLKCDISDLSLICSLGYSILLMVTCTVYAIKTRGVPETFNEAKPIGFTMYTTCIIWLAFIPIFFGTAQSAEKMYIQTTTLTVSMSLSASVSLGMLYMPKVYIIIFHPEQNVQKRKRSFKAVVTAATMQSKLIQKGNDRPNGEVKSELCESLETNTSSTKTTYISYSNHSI
Sequence of Metabotropic glutamate receptor 5 (P41594 whole entry): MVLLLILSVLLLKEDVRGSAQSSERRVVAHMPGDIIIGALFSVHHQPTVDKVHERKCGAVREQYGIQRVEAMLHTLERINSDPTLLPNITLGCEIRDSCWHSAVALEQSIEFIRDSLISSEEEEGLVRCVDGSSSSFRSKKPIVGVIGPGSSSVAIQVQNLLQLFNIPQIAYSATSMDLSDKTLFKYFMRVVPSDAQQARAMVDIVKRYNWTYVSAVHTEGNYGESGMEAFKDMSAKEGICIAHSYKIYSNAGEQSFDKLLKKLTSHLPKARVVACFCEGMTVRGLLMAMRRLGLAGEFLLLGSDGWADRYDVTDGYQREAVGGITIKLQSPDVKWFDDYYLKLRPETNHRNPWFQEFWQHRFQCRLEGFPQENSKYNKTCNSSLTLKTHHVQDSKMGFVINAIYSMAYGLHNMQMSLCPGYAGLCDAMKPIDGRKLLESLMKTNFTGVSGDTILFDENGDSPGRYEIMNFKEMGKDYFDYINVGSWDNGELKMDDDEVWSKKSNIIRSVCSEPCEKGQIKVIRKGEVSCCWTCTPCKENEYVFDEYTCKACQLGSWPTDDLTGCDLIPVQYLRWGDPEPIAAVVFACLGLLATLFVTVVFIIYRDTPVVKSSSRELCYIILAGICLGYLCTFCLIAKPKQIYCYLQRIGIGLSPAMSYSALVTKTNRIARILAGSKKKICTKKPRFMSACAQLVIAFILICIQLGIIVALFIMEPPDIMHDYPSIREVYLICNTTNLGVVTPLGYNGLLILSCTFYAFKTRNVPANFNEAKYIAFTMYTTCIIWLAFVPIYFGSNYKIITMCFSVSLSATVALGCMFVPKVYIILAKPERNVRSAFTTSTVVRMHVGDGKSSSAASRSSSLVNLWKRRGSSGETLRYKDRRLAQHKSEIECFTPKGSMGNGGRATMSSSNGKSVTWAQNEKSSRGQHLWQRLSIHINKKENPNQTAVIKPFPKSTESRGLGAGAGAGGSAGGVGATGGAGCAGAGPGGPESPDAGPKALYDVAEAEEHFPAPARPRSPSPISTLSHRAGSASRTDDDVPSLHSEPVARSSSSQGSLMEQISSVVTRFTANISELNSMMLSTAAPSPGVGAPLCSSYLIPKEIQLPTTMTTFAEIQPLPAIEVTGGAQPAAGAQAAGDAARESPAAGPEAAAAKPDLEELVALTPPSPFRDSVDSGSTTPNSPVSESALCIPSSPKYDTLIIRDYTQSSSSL

Take `O=C1CCOc2cc(OCc3ccccc3)ccc21`: the EC50 in test [1], in test [2], in test [3], in test [4], in test [5] and in test [6] was more than 10000 nM in each case. With `O=C1CCOc2cc(COc3ccccc3)ccc21`, the EC50 in test [1], in test [2], in test [3], in test [4], in test [5] and in test [6] was more than 10000 nM in each case.

Turning to `O=C1NCCc2nc(C#Cc3ccccc3)sc21`, the EC50 in test [7] stood at 123 nM. On the same count and under the same terms, for `CN1CCc2nc(C#Cc3ccccc3)sc2C1=O` the value was 193 nM; for `O=C1CCc2cc(O)ccc2O1`, more than 10000 nM; for `O=C1c2sc(COc3ccccc3)nc2CCN1CC1CC1`, 250 nM.

`O=C1c2sc(COc3ccccc3)nc2CCN1CC1CCOCC1` returned an EC50 in test [7] of 851 nM. The same measure, in the same setting: for `O=C1c2sc(COc3ccccc3)nc2CCN1c1ccc(F)cc1` the value was 96 nM; for `O=C1c2sc(COc3ccccc3)nc2CCN1c1ccc(F)cc1F`, 66 nM. Still for that read-out and setting: for `O=C1c2sc(COc3ccccc3F)nc2CCN1c1ccc(F)cc1` the value was 553 nM; for `O=C1c2sc(COc3cccc(F)c3)nc2CCN1c1ccc(F)cc1`, 77 nM; for `O=C1c2sc(COc3ccc(F)cc3)nc2CCN1c1ccc(F)cc1`, 739 nM. Regarding `O=C1c2sc(COc3ccccc3)nc2CCN1c1ccccn1`, the concentration for a half-maximal effect (EC50) in test [7] stood at 1020 nM. On the same count and under the same terms, then `O=C1c2sc(COc3ccccc3)nc2CCN1c1cccnc1`, with 1760 nM. With `O=C1c2sc(COc3ccccc3)nc2CCN1c1ccc(F)cn1`, the response in test [7] was half-maximal at 621 nM (EC50).

In test [7], `O=C1c2sc(COc3ccccc3)nc2CCN1c1ncccc1F` returned a 50% effective concentration (EC50) of 791 nM. Take `COCCN1CCc2nc(C#Cc3ccccc3)sc2C1=O`: the EC50 in test [7] turned out to be 119 nM. Still for that read-out and setting: then `CN1CCc2nc(OCc3ccccc3)sc2C1=O`, with 1750 nM; and `O=C1c2sc(OCc3ccccc3)nc2CCN1c1ccc(F)cc1`, with 1130 nM; and `CC(C)N1CCc2nc(COc3ccccc3)sc2C1=O`, with 1210 nM. The same measure, in the same setting: for `COCCN1CCc2nc(COc3ccccc3)sc2C1=O` the value was 2310 nM; for `O=C1c2sc(COc3ccccc3)nc2CCN1C1CC1`, 1460 nM. In the case of `O=C1CCCc2nc(C#Cc3ccccc3)sc21`, the concentration for a half-maximal effect (EC50) in test [7] is 33 nM; in test [1], more than 10000 nM; in test [8], more than 10000 nM; in test [2] it was more than 10000 nM; in test [3] it was more than 10000 nM; in test [4], more than 10000 nM. Besides, the EC50 in test [5] and in test [6] was more than 10000 nM throughout. In the case of `O=C(c1ccc(F)cc1)N1CCC[C@H](c2nc(-c3ccc(F)cc3)no2)C1`, the concentration for a half-maximal effect (EC50) in test [7] was 199 nM.

With `O=C(O)c1ccccc1` [BENZOIC ACID], the half-maximal effective concentration (EC50) in test [7] was more than 10000 nM.

By EC50 is commonly meant the concentration at which the effect is half-maximal. Low readings indicate an effect from little substance, high ones a need for much substance.

These data come from ChEMBL document CHEMBL2424640, “Dihydrothiazolopyridone derivatives as a novel family of positive allosteric modulators of the metabotropic glutamate 5 (mGlu5) receptor” (J Med Chem, 2013).
